Results: publication PMC8957246, “Synthesis and diverse biological activity profile of triethylammonium isatin-3-hydrazones” (ADMET & DMPK, 2022)
Where a name gives a salt, the structure may show the parent alone. Read-outs that look alike come from different tables or passages of the source. Marks after values point to notes of the source that are not given here. One block for each molecule: values may come before it.

Key:
[1] = test system: platelets (collagen-induced aggregation); assay: Platelet aggregation (Born method), collagen-induced; assay type: cell-based; settings: Homo sapiens, collagen 5 mg/mL, final concentration 2×10^–3 mol/L, median (25-75 percentiles), read-out: Platelets aggregation, % of control, Collagen
Experimental: (§1) The in vitro experiments were performed using the blood of healthy male donors aged 18-24 years (total 54 donors). The study was approved by the Ethics Committee of Federal State Budgetary Educational Institution of Higher Education at the Bashkir State Medical University of the Ministry of Health of Russian Federation (No.2 dated 17.10.2012). Informed consent was obtained from all participants before blood sampling. The blood was collected from the cubital vein using the system of vacuum blood collection BD Vacutainer® (Becton, Dickinson and Company, USA). A 3.8 % sodium citrate solution in a 9:1 ratio was used as a venous blood stabiliser. The study of the effect on platelet aggregation was performed using the Born method using the aggregometer «AT-02» (SPC Medtech, Russia). The assessment of antiplatelet activity of the studied compounds and reference preparations was started with the final concentration of 2×10^–3 mol/L. Adenosine diphosphate (ADP; 20 μg/mL) and collagen (5 mg/mL) manufactured by Tehnologia-Standart Company, Russia, were used as inducers of aggregation. The study on the anticoagulant activity was performed by standard recognised clotting tests using the optical two-channel automatic analyser of blood coagulation Solar CGL 2110 (CJSC SOLAR, Belarus). The following parameters were studied: activated partial thromboplastin time (APTT), prothrombin time (PT) and fibrinogen concentrations according to the Clauss method. The determination of anticoagulant activity of the studied compounds and reference preparation was performed in a concentration of 5×10^–4 g/mL using the reagents manufactured by Tehnologia-Standart Company (Barnaul, Russia). The results of the study were processed using the statistical package Statistica 10.0 (StatSoft Inc, USA). The Shapiro–Wilk’s test was used to check the normality of actual data distribution. The form of distribution of the data obtained differed from the normal one; therefore, non-parametric methods were used for further analysis. The data were presented as medians and 25 and 75 percentiles. Analysis of variance was conducted using Kruskal–Wallis test. A p value of 0.05 was considered statistically significant.

[2] = test system: Bacillus cereus ATCC 10702 NCTC 8035; assay: Antimicrobial activity, serial dilution (MIC/MBC), Bc; assay type: cell-based
Experimental: (§2) The antimicrobial activity of the test compounds was determined by the serial dilution technique in Muller Hinton Broth 2 and in Sabouradu broth for fungi. The cultures used for testing included Gram-positive bacteria: Staphylococcus aureus ATCC 6538P FDA 209P, Bacillus cereus ATCC 10702 NCTC 8035, Enterococcus faecalis ATCC 29212; Gram-negative bacteria: Escherichia coli ATCC 25922, Pseudomonas aeruginosa ATCC 9027, and fungi: Trichophyton mentagrophytes var. gypseum 1773, and Candida albicans ATCC 10231; methicillin-resistant strains of S. aureus (MRSA) was obtained from hospital patients with chronic tonsillitis in the Republican Clinical Hospital (Kazan, Russia). The bacterial load was 3.0 × 10^5 cfu/ml. The fungi load was 2.0 × 10^3 cfu/ml. The results were recorded every 24 h for 5-7 days. Cultures were incubated at 37 °C. The experiment was repeated three times. […] The minimum inhibitory concentration (MIC) was defined as the minimum concentration of a compound that inhibits the growth of the corresponding test microorganism. The growth of bacteria, as well as the absence of the growth due to the bacteriostatic action of compounds, were recorded.
(§3) Synthesized compounds were further evaluated for antimicrobial activity against test microorganisms: Staphylococcus aureus ATCC 209p (Sa), Bacillus cereus ATCC 8035 (Bc), Escherichia coli CDC F-50 (Ec), Enterococcus faecalis (Ef), Pseudomonas aeruginosa ATCC 9027, Aspergillus niger BKMF-1119, Trichophyton mentagrophytes var. gypseum 1773, and Candida albicans 855-653 including methicillin-resistant strains of S. aureus (MRSA 1 and MRSA 2). The minimum inhibitory (MIC) and minimum bactericidal (MBC) concentrations of ammonium salts were determined against these pathogens (Table 1). Due to the lack of activity of compounds 3a-g against Gram-negative bacterial strains and some fungi, the corresponding data are not shown.

[3] = test system: platelets (ADP-induced aggregation); assay: Platelet aggregation (Born method), ADP-induced; assay type: cell-based; settings: Homo sapiens, ADP 20 μg/mL, final concentration 2×10^–3 mol/L, median (25-75 percentiles), read-out: Platelets aggregation, % of control, ADP
Experimental: as §1

[4] = test system: Candida albicans ATCC 10231; assay: Antimicrobial activity, serial dilution (MIC/MBC), Ca; assay type: cell-based; settings: ATCC10231
Experimental: as §2, §3

[5] = test system: methicillin-resistant strains of S. aureus (MRSA-2); assay: Antimicrobial activity, serial dilution (MIC/MBC), MRSA-2; assay type: cell-based; settings: Staphylococcus aureus
Experimental: as §2, §3

[6] = test system: methicillin-resistant strains of S. aureus (MRSA-1); assay: Antimicrobial activity, serial dilution (MIC/MBC), MRSA-1; assay type: cell-based; settings: Staphylococcus aureus
Experimental: as §2, §3

[7] = test system: Enterococcus faecalis ATCC 29212; assay: Antimicrobial activity, serial dilution (MIC/MBC), Ef; assay type: cell-based; settings: ATCC29212
Experimental: as §2, §3

[8] = test system: activated partial thromboplastin time (intrinsic coagulation pathway); assay: Anticoagulant activity, clotting test APTT; parameters: species or system human; settings: concentration 5×10^–4 g/mL; median (25-75 percentiles)
Experimental: as §1

[9] = test system: human erythrocytes; assay: Hemolytic activity; assay type: cell-based; settings: compared within series 3a-g and reference drug
Experimental: Hemolytic activity of test compounds was estimated by comparing the optical density of a solution containing the test compound with that of blood at 100 % hemolysis. The experiments were carried out as described earlier.
An important step in the determination of the biological activity of new chemical compounds is the assessment of their cytotoxic action in relation to mammalian cells. The ability of the investigated compound to cause the destruction of human erythrocytes illustrates its toxic effect on the internal environment of the body. The hemolysis assay is a simple screening test, the results of which can help in the study of cytotoxicity in more complex models. Such experimental models can be the cell lines obtained from various organs and tissues of a person and allowing to adequately assessing the effect of new potential drugs on cell metabolism.

[10] = test system: Staphylococcus aureus ATCC 6538P FDA 209P; assay: Antimicrobial activity, serial dilution (MIC/MBC), Sa; assay type: cell-based; settings: Staphylococcus aureus
Experimental: as §2, §3

[11] = test system: Chang liver cell line (Human liver cells); settings: reference drug compared with 3a-g

melting point: 176 °C
Molecule: CC[N+](CC)(CC)CC(=O)N/N=C1\C(=O)N(Cc2cc(C(C)(C)C)c(O)c(C(C)(C)C)c2)c2ccc([N+](=O)[O-])cc21 (as salt: bromide) [Compound 3f, 2-(2-(1-(3,5-Di-tert-butyl-4-hydroxybenzyl)-5-nitro-2-oxoindolin-3-ylidene)hydrazinyl)-N,N,N-triethyl-2-oxoethanammonium bromide]

melting point: 177 °C
Molecule: CC[N+](CC)(CC)CC(=O)N/N=C1\C(=O)N(Cc2cc(C(C)(C)C)c(O)c(C(C)(C)C)c2)c2c(Br)cc(Cl)cc21 (as salt: bromide) [Compound 3g, 2-(2-(1-(3,5-Di-tert-butyl-4-hydroxybenzyl)-5-chloro-7-bromo-2-oxoindolin-3-ylidene)hydrazinyl)-N,N,N-triethyl-2-oxoethanammonium bromide]

MIC [2]: 25.4 ± 1.9 µM | MIC ([2]; Bacillus cereus, read-out: MIC): ~25 µM | MIC [4]: > 500 µM | MIC [5]: 25.4 ± 2.3 µM | MIC [6]: 50.8 ± 4.1 µM | MIC [7]: > 500 µM | MIC [10]: 3.2 ± 0.2 µM
Molecule: CC[N+](CC)(CC)CC(=O)N/N=C1\C(=O)N(Cc2cc(C(C)(C)C)c(O)c(C(C)(C)C)c2)c2c(C)cccc21 [Compound 3b, 2-(2-(1-(3,5-Di-tert-butyl-4-hydroxybenzyl)-7-methyl-2-oxoindolin-3-ylidene)hydrazinyl)-N,N,N-triethyl-2-oxoethanammonium bromide]
inhibition at 2000 µM [1]: 10.3% | MBC ([2]; Bacillus cereus): 203 µM | inhibition at 2000 µM [3]: 9.7% | MBC [4]: > 500 µM | MBC [5]: 50.8 µM | MBC [6]: 203 µM | MBC [7]: > 500 µM | APTT, % of control [8]: +7.3 (6.5-9.6) ^*, ^† % of control | toxicity to red blood cells (in words) [9]: least toxic | MBC ([10]; read-out: MBC (converted)): 25.4 µM

Molecule: COc1cccc2c1C(=O)c1c(O)c3c(c(O)c1C2=O)C[C@@](O)(C(=O)CO)C[C@@H]3O[C@H]1C[C@H](N)[C@H](O)[C@H](C)O1 [doxorubicin]
toxicity to liver cells (in words) [11]: much more toxic

Molecule: gramicidin S [reference compound]
toxicity to red blood cells (in words) [9]: much more toxic
